{"source": "ChEMBL document CHEMBL3352398", "about": "“2-(2-Bromophenyl)-formononetin and 2-heptyl-formononetin are PPARγ partial agonists and reduce lipid accumulation in 3T3-L1 adipocytes” (Bioorg Med Chem, 2014)", "key": {"3T3-L1 [1]": {"test_system": "3T3-L1", "assay": "Effect on adipogenesis in mouse 3T3L1 cells assessed as reduction in Pparg gene expression at 5 to 50 uM after 8 days by real time quantitative PCR analysis relative to vehicle-treated control", "type": "functional, cell-based"}, "3T3-L1 [2]": {"test_system": "3T3-L1", "assay": "Effect on adipogenesis in mouse 3T3L1 cells assessed as reduction in Cebpa gene expression at 5 to 50 uM after 8 days by real time quantitative PCR analysis relative to vehicle-treated control", "type": "functional, cell-based"}, "3T3-L1 [3]": {"test_system": "3T3-L1", "assay": "Effect on adipogenesis in mouse 3T3L1 cells assessed as reduction in Cebpa gene expression at 5 to 50 uM after 4 days by real time quantitative PCR analysis relative to vehicle-treated control", "type": "functional, cell-based"}, "3T3-L1 [4]": {"test_system": "3T3-L1", "assay": "Reduction in triglyceride release in mouse 3T3L1 cells at 50 uM after 48 hrs by fluorescence-based AdipoRed assay", "type": "functional, cell-based"}, "3T3-L1 [5]": {"test_system": "3T3-L1", "assay": "Reduction in triglyceride release in mouse 3T3L1 cells at 50 uM after 48 hrs by oil red o assay", "type": "functional, cell-based"}, "3T3-L1 [6]": {"test_system": "3T3-L1", "assay": "Induction of lipolysis in mouse 3T3L1 cells assessed as increase in glycerol level at 50 uM after 48 hrs by UV-Vis spectrophotometry", "type": "functional"}, "3T3-L1 [7]": {"test_system": "3T3-L1", "assay": "Reduction in lipogenesis in mouse 3T3L1 cells assessed as down regulation of Acaca gene exression by real time-qPCR analysis", "type": "functional, cell-based"}, "3T3-L1 [8]": {"test_system": "3T3-L1", "assay": "Reduction in lipogenesis in mouse 3T3L1 cells assessed as down regulation of Fasn gene exression by real time-qPCR analysis", "type": "functional, cell-based"}, "3T3-L1 [9]": {"test_system": "3T3-L1", "assay": "Reduction in lipogenesis in mouse 3T3L1 cells assessed as down regulation of Scd1 gene exression by real time-qPCR analysis", "type": "functional, cell-based"}, "3T3-L1 [10]": {"test_system": "3T3-L1", "assay": "Induction of lipolysis in mouse 3T3L1 cells assessed as up-regulation of Atgl gene exression by real time-qPCR analysis", "type": "functional, cell-based"}, "[11]": {"molecular_target": "T1, Peroxisome proliferator-activated receptor gamma (Mus musculus) (UniProt P37238)", "T1 sequence (whole entry)": "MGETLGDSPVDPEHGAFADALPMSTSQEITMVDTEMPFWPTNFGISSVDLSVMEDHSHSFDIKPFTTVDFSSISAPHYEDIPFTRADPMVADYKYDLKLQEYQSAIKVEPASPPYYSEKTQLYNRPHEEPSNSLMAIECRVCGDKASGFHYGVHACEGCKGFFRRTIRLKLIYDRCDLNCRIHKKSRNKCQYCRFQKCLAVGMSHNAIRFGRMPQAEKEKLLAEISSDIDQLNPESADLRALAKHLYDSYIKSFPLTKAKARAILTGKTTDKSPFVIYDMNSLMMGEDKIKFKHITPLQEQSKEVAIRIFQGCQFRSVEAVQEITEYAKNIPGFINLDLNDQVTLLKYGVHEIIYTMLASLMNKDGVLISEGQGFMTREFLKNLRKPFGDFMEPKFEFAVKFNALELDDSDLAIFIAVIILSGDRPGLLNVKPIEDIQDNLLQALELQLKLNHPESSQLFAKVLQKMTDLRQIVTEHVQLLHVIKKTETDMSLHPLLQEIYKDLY", "assay": "Agonist activity at PPAR-gamma in mouse embryo fibroblast at 5 to 50 uM by transactivation assay relative to rosiglitazone"}, "[12]": {"molecular_target": "T1, Peroxisome proliferator-activated receptor gamma (Mus musculus)", "assay": "Agonist activity at PPAR-gamma in mouse embryo fibroblast by transactivation assay relative to rosiglitazone"}, "3T3-L1 [13]": {"test_system": "3T3-L1", "assay": "Activation of AMPK in mouse 3T3L1 cells assessed as AMPK phosphorylation at 50 uM after 5 to 48 hrs by Western blotting analysis", "type": "cell-based"}}, "note": "Active and inactive are the calls of the source. The calls are words filed in the database; no cut-off is given here."}
{"molecule": "CCCCCCCc1oc2cc(O)ccc2c(=O)c1-c1ccc(OC)cc1", "values": [{"measurement": "Activity", "setting": "3T3-L1 [1]", "result": "Dose-dependent effect"}, {"measurement": "Activity", "setting": "3T3-L1 [2]", "result": "Dose-dependent effect"}, {"measurement": "Activity", "setting": "3T3-L1 [3]", "result": "Dose-dependent effect"}, {"measurement": "Activity", "setting": "3T3-L1 [4]", "result": "Active"}, {"measurement": "Activity", "setting": "3T3-L1 [5]", "result": "Active"}, {"measurement": "fold change (FC)", "setting": "3T3-L1 [6]", "result": 2}, {"measurement": "Activity", "setting": "3T3-L1 [7]", "result": "Active"}, {"measurement": "Activity", "setting": "3T3-L1 [8]", "result": "Active"}, {"measurement": "Activity", "setting": "3T3-L1 [9]", "result": "Active"}, {"measurement": "Activity", "setting": "3T3-L1 [10]", "result": "Active"}, {"measurement": "Activity", "setting": "[11]", "result": 33, "unit": "%"}, {"measurement": "Activity", "setting": "[12]", "result": "Dose-dependent effect"}, {"measurement": "Activity", "setting": "3T3-L1 [13]", "result": "inactive"}]}
